From patent US4508716A, “[1,2]-Fused 1,4-benzodiazepine compounds, process for their preparation and compositions containing them” (Kali-Chemie Pharma GmbH, priority 1981, dated 1985) come the findings set out here.

In data set [1] the test system is apomorphine-induced climbing behaviour. In words: Test for neuroleptic properties: inhibition of apomorphine-induced climbing behaviour in mice. The class given is in vivo. The following applies: Mus musculus, male NMR1 mice, 60 min before apomorphine 1.0 mg/kg s.c.; for inhibition in vivo at 2.2 mg/kg: dose 2.2 mg/kg peroral. The method, then: 2. Test for neuroleptic properties
Determination of the effective dose for inhibiting apomorphine-induced climbing behaviour in mice (modified method of P. Protais et al., Psychopharmacology 50, (1976), 1-6).
Groups each containing 10 male NMR1 mice of 18-24 g. body weight are used per test dose. The test substance is administered perorally, as a suspension in […] "Tylose" solution.
After 60 minutes, the animals are each injected subcutaneously with 1.0 mg./kg. of apomorphine, and immediately after the injection, each animal is placed under a vertical wire mesh cylinder (diameter 13 cm., height 16 cm., closed at the top). After 10, 20 and 30 minutes, the climbing behaviour of the animals is evaluated in accordance with the following point system:
0 points=no paw on the mesh
1 point=one or two paws touching the mesh
2 points=three or all paws gripping the mesh, or climbing
For each test group, the sum of the points (maximum number of points=20) at the three test times is determined, and the average of the 3 values is taken for calculating the inhibition of climbing behaviour effected by the test substance.
In the table which follows, the inhibiting action is given in % inhibition in comparison with the climbing behaviour of a control group which was not treated with the test substance.

The nature of data set [2]: Acute toxicity (acute 7-day toxicity following a single oral administration, LD50 by probit analysis). The following applies: mouse, in vivo, NMR1 mice. The protocol: The acute 7-day toxicity is determined following a single oral administration to white, fasting NMR1 mice, and the LD50 value is calculated by electronic data processing, by probit analysis.
Another data set deals with hexobarbital anaesthesia. As to the kind of experiment: Test for the central nervous system sedating properties: prolongation of the duration of hexobarbital anaesthesia in mice. The class given is in vivo. The following applies: male mice, 60 min before hexobarbital sodium 50 mg/kg i.v.

Bounds are passed on as bounds.

Usually inhibition in vivo stands for the drop in the measured response relative to a control, in per cent. Read a low inhibition in vivo as a weak effect. What is called LD50 is the dose expected to kill half of the subjects tested. Read a high LD50 as a less toxic substance. For `CN1CCN2c3ccccc3C(c3cccs3)=NCC2C1` (centres unmarked) [Example 4, 1,2,3,4,4a,5-Hexahydro-3-methyl-7-(2-thienyl)-pyrazino[1,2-a][1,4]benzodiazepine], the inhibition in vivo at 2.9 mg/kg in data set [1] (dose 2.9 mg/kg peroral) was found to be 70%. Moreover, the LD50 at 168 h in data set [2] was around 440 mg/kg. Further, in the data set on hexobarbital anaesthesia (dose ≤13.8 mg/kg peroral), the “Prolongation of the duration of hexobarbital anaesthesia, prolongation factor” value (“Prolongation” below) turned out to be 0.
Take `CN1CCN2c3ccc(Cl)cc3C(c3cccn3C)=NCC2C1` (centres unmarked) [Example 9, 1,2,3,4,4a,5-Hexahydro-9-chloro-3-methyl-7-[2-(N-methyl)-pyrrolyl]-pyrazino[1,2-a][1,4]benzodiazepine]: in data set [1] (dose 4.2 mg/kg peroral), the inhibition in vivo at 4.2 mg/kg was determined as 48%. Besides, the LD50 at 168 h in data set [2] is above 893 mg/kg. Further, in the data set on hexobarbital anaesthesia (dose ≤41.5 mg/kg peroral), the “Prolongation” value worked out at 0.
`Cc1ccc2c(c1)C(c1ccco1)=NCC1CN(C)CCN21` (centres unmarked) [Example 10a, 1,2,3,4,4a,5-Hexahydro-3,9-dimethyl-7-(2-furyl)-pyrazino[1,2-a][1,4]benzodiazepine] yielded an inhibition in vivo at 13.3 mg/kg in data set [1] (dose 13.3 mg/kg peroral) of 31%. Moreover, in data set [2], the LD50 at 168 h was above 422 mg/kg. Besides, the “Prolongation” value in the data set on hexobarbital anaesthesia (dose ≤42.2 mg/kg peroral) is given as 0.
Compound `Cc1ccc2c(c1)C(c1ccc(Br)s1)=NCC1COCCN21` (centres unmarked) [Example 22] registered an inhibition in vivo at 8.1 mg/kg in data set [1] (dose 8.1 mg/kg peroral) of 50%. The same compound showed an LD50 at 168 h in data set [2] above 811 mg/kg. Moreover, in the data set on hexobarbital anaesthesia (dose 37.7 mg/kg peroral), the “Prolongation” value worked out at 1.5.
The compound `Cc1ccc2c(c1)C(c1ccco1)=[N+]([O-])CC1CN(C)CCN21` (centres unmarked) [Example 35] registered an inhibition in vivo at 9.8 mg/kg in data set [1] (dose 9.8 mg/kg peroral) of 35%. This compound showed a 50% lethal dose (LD50) at 168 h in data set [2] above 311 mg/kg. Moreover, the “Prolongation” value with hexobarbital anaesthesia (dose 9.8 mg/kg peroral) was 2.1.
Take `COc1ccc2c(c1)N1CCN(C)CC1C[N+]([O-])=C2c1ccco1` (centres unmarked) [Example 36]: the inhibition in vivo at 22.3 mg/kg in data set [1] (dose 22.3 mg/kg peroral) was 34%. Besides, the LD50 at 168 h in data set [2] was above 704 mg/kg. Further, the “Prolongation” value with hexobarbital anaesthesia (dose ≤70.4 mg/kg peroral) turned out to be 0.
Regarding `CCOc1ccc2c(c1)C(c1ccn(C)c1)=NCC1CN(C)CCN21` (centres unmarked) [Example 41], in data set [1] (dose 13.9 mg/kg peroral), 13.9 mg/kg produced 14% inhibition in vivo. The “Prolongation” value in the data set with hexobarbital anaesthesia (dose 43.8 mg/kg peroral) was found to be 1.6.
The compound `COc1ccc2c(c1)N1CCN(C)CC1CN=C2c1cccs1` (centres unmarked) [Example 51] yielded an inhibition in vivo at 2.2 mg/kg in data set [1] of 57%. Further, in data set [2], the LD50 at 168 h is above 704 mg/kg. The “Prolongation” value in the data set on hexobarbital anaesthesia (dose 22.3 mg/kg peroral) is given as 1.9.
Regarding `CN1CCN2c3cc(F)ccc3C(c3cccs3)=NCC2C1` (centres unmarked) [Example 55], the inhibition in vivo at 0.2 mg/kg in data set [1] (dose 0.2 mg/kg peroral) was determined as 47%. Also, the LD50 at 168 h in data set [2] was above 315 mg/kg. In addition, the “Prolongation” value with hexobarbital anaesthesia (dose 6.8 mg/kg peroral) came out at 1.3.
With `Cc1cc(C)c2c(c1)N1CCOCC1CN=C2c1cccs1` (centres unmarked) [Example 63], in data set [1] (dose 21.3 mg/kg peroral), the inhibition in vivo at 21.3 mg/kg is 11%. Moreover, the “Prolongation” value in the data set on hexobarbital anaesthesia (dose 67.2 mg/kg peroral) came to 1.5.
In turn, `Cc1cc(C)c2c(c1)N1CCSCC1CN=C2c1cccs1` (centres unmarked) [Example 65] had an inhibition in vivo at 22.4 mg/kg in data set [1] (dose 22.4 mg/kg peroral) of 12%.
`CCN1CCN2c3ccccc3C(c3cccs3)=NCC2C1` (centres unmarked) [Example 69]: testing at 0.7 mg/kg in data set [1] (dose 0.7 mg/kg peroral) gave an inhibition in vivo of 71%. In data set [2], this compound yielded an LD50 at 168 h of around 420 mg/kg. The “Prolongation” value in the data set with hexobarbital anaesthesia (dose ≤28.0 mg/kg peroral) stood at 0.
Compound `C=CCN1CCN2c3ccccc3C(c3cccs3)=NCC2C1` (centres unmarked) [Example 70] showed an inhibition in vivo at 2.2 mg/kg in data set [1] of 36%. Moreover, the LD50 at 168 h in data set [2] was around 790 mg/kg. Moreover, the “Prolongation” value in the data set on hexobarbital anaesthesia (dose ≤39.6 mg/kg peroral) is 0.
Regarding `CC(C)CCN1CCN2c3ccccc3C(c3cccs3)=NCC2C1` (centres unmarked) [Example 74], the inhibition in vivo at 3.3 mg/kg in data set [1] (dose 3.3 mg/kg peroral) is 70%. This compound also had an LD50 at 168 h in data set [2] of around 730 mg/kg. For the same compound, the “Prolongation” value with hexobarbital anaesthesia (dose 33.0 mg/kg peroral) was determined as 2.0.
